One data set concerns male SWISS-WEBSTER mice. Kind of data set: mnesic retention test of exploratory activity (APELAB ACTIMETER). It counts as in vivo. To be noted: re-measured after a week; for inhibition in vivo at 10 mg/kg: dose 10 mg/kg i.v.
The nature of data set [1]: approximate acute toxicity (MILLER and TAINTER). To be noted: mouse, in vivo, mice. The procedure: The approximate acute toxicity is determined according to the method described by MILLER and TAINTER in Proc. Soc. Exp. Biol. Med. 57, 261 (1944).
Where [2] appears, read: Mus musculus, iv, 168 h, dose 3 mg/kg i.v., read-out: Mnesic test: % reduction of the exploratory activity.
Setting [3] is: Mus musculus, iv, 168 h, read-out: Mnesic test: % reduction of the exploratory activity.
[4] abbreviates: Mus musculus, iv, 168 h, dose 1 mg/kg i.v., read-out: Mnesic test: % reduction of the exploratory activity.

What is called mortality is the percentage killed. Read a low mortality as more survivors. Regarding `COc1cc(/C=C/C(=O)N2CCN(CC(N)=O)CC2)cc(OC)c1OC` [Code number 11, trans-1-(3,4,5-trimethoxy)cinnamoyl 4-aminocarbonylmethyl piperazine], the inhibition in vivo at 3 mg/kg with male SWISS-WEBSTER mice (setting [2]) was 28.4%. For the same compound, the mortality in data set [1] (iv, dose 200 mg/kg i.v.) was 0%.
On the same counts, the results for `COc1cc(/C=C/C(=O)N2CCN(CC(=O)NC3CCCC3)CC2)cc(OC)c1OC` [compound 23] are 18.4% and 0%.
As for `COc1cc(/C=C/C(=O)N2CCN(CC(=O)NC(C)C)CC2)ccc1O` [compound 26], the inhibition in vivo at 10 mg/kg in the data set with male SWISS-WEBSTER mice (setting [3]) was 14.3%.
Regarding `COc1cc(/C=C/C(=O)N2CCN(CC(=O)NCc3cc(OC)c(OC)c(OC)c3)CC2)cc(OC)c1OC` [compound 29], the inhibition in vivo at 3 mg/kg in the data set with male SWISS-WEBSTER mice (setting [2]) was 9.9%. Also, the mortality in data set [1] (iv, dose 200 mg/kg i.v.) was found to be 0%.
Consider `O=C(/C=C/c1ccccc1)N1CCN(CC(=O)N2CCCC2)CC1` [compound 36], for which the inhibition in vivo at 10 mg/kg in the data set on male SWISS-WEBSTER mice (setting [3]) amounted to 18.4%. Moreover, the mortality in data set [1] (iv, dose 200 mg/kg i.v.) is 0%.
As to `O=C(/C=C/c1ccc2c(c1)OCO2)N1CCN(CC(=O)N2CCCC2)CC1` [compound 37], in the data set with male SWISS-WEBSTER mice (setting [4]), the inhibition in vivo at 1 mg/kg is 25.2%. In data set [1] (ip, dose 400 mg/kg i.p.), this compound showed a mortality of 0%.
With `O=C(/C=C/c1ccc(F)cc1)N1CCN(CC(=O)N2CCCC2)CC1` [compound 38], the inhibition in vivo at 3 mg/kg in the data set with male SWISS-WEBSTER mice (setting [2]) was found to be 28.6%. In addition, the mortality in data set [1] (iv, dose 200 mg/kg i.v.) came out at 10%.
On to `O=C(/C=C/c1ccc(Cl)c(Cl)c1)N1CCN(CC(=O)N2CCCC2)CC1` [compound 40], for which, in the data set with male SWISS-WEBSTER mice (setting [2]), the inhibition in vivo at 3 mg/kg was 28.9%. Moreover, in data set [1] (iv, dose 120 mg/kg i.v.), the mortality was determined as 50%.
In the case of `COc1cc(/C=C/C(=O)N2CCN(CC(=O)N3CCCC3)CC2)cc(OC)c1` [compound 43], the inhibition in vivo at 10 mg/kg with male SWISS-WEBSTER mice (setting [3]) came out at 23.8%.
For `O=C(/C=C/c1ccc(Cl)cc1)N1CCN(CC(=O)N2CCCC2)CC1` [compound 47], the inhibition in vivo at 1 mg/kg in the data set with male SWISS-WEBSTER mice (setting [4]) is 26.5%. Besides, the mortality in data set [1] (iv, dose 200 mg/kg i.v.) was 0%.
Take `COc1ccccc1/C=C/C(=O)N1CCN(CC(=O)N2CCCC2)CC1` [compound 48]: the inhibition in vivo at 30 mg/kg in the data set with male SWISS-WEBSTER mice (Mus musculus, iv, 168 h, dose 30 mg/kg i.v., read-out: Mnesic test: % reduction of the exploratory activity) turned out to be 26.1%. In data set [1] (iv, dose 200 mg/kg i.v.), the mortality came to 0%.
Consider `COc1ccc(OC)c(/C=C/C(=O)N2CCN(CC(=O)N3CCCC3)CC2)c1` [compound 49], for which the inhibition in vivo at 1 mg/kg in the data set on male SWISS-WEBSTER mice (setting [4]) came out at 15.7%. This compound came in with a mortality in data set [1] (iv, dose 205 mg/kg i.v.) of 50%.
On to `O=C(/C=C/c1ccc2c(c1)OCO2)N1CCN(CC(=O)N2CCCCC2)CC1` [compound 55], for which the inhibition in vivo at 3 mg/kg in the data set on male SWISS-WEBSTER mice (setting [2]) turned out to be 18.7%.
Same read-out and setting: to `O=C(/C=C/c1ccc(Cl)cc1)N1CCN(CC(=O)N2CCCCC2)CC1` [compound 56] belongs 23.5%.
Take “trans-1-(3,4,5-trimethoxy)cinnamoyl 4-(2-hydroxy)ethyl piperazine maleate [Code number 2]”: the “Mnesic test: % reduction of the exploratory activity” value in the data set with male SWISS-WEBSTER mice (dose 3 mg/kg i.v.) is recorded as 17.5%.
In the case of “trans-1-(3,4-methylenedioxy)cinnamoyl 4-pyrrolidinocarbonyl piperazine, hydrochloride [Code number 37]”, the “Mnesic test: % reduction of the exploratory activity” value with male SWISS-WEBSTER mice (dose 1 mg/kg i.v.) turned out to be 14.7%.

Values taken from patent US4639452A, “Arylic derivatives of piperazine, the method of preparing same and their application in therapeutics” (Delalande S.A., priority 1982, dated 1987).
